Results: US8765060B2, “Chemical sensor” (Regents of the University of Minnesota, priority 2005, dated 2014)
Read-outs that look alike come from different tables or passages of the source.

Columns and labels:
[1] = Solubility in perfluoroperhydrophenanthrene (PFPHP)
[2] = Solubility in perfluoro(tributylamine)
Method: To explore the possibility that salts of ionic sites might be more soluble in fluorous phases if their hydrophilic ion were complexed to a receptor, the solubilities of several ion receptors in PFPHP and perfluoro(tributylamine) were tested.

[3] = assuming 1:1 stoichiometry; cited from earlier work
[4] = assuming 1:1 stoichiometry; cited from earlier work; remark: listed apart in the source
[5] = Extraction of lipophilic acids into fluorous membranes, 1H NMR; type: physicochemical; settings: aqueous buffered solutions of 10^−3.5 M acid; 1H NMR of membrane
[6] = cited from earlier work
[7] = cited from earlier work; remark: listed apart in the source
[8] = cited from earlier work; remark: listed apart in the source
[9] = PFPHP saturated with substance, salts judged by resistance of soaked porous PTFE membranes

Q: For `OC(c1cccc(C(O)(C(F)(F)F)C(F)(F)F)c1)(C(F)(F)F)C(F)(F)F`, which “solubility in PFPHP” value [1, 9] is on record?
A: Its value is “poorly soluble”.

Q: What about the “solubility in perfluoro(tributylamine)” value [2] of the same molecule?
A: The value was “poorly soluble”.

Q: With `FC(F)(F)C(F)(F)C(F)(F)C(F)(F)C(F)(F)C(F)(F)c1cc([B-](c2cc(C(F)(F)C(F)(F)C(F)(F)C(F)(F)C(F)(F)C(F)(F)F)cc(C(F)(F)C(F)(F)C(F)(F)C(F)(F)C(F)(F)C(F)(F)F)c2)(c2cc(C(F)(F)C(F)(F)C(F)(F)C(F)(F)C(F)(F)C(F)(F)F)cc(C(F)(F)C(F)(F)C(F)(F)C(F)(F)C(F)(F)C(F)(F)F)c2)c2cc(C(F)(F)C(F)(F)C(F)(F)C(F)(F)C(F)(F)C(F)(F)F)cc(C(F)(F)C(F)(F)C(F)(F)C(F)(F)C(F)(F)C(F)(F)F)c2)cc(C(F)(F)C(F)(F)C(F)(F)C(F)(F)C(F)(F)C(F)(F)F)c1.[Na+]` [compound 2] as the molecule, how does the solubility ([1]; organic solvent or mixture) read?
A: The solubility was 1400 µM.

Q: Which “solubility in PFPHP” value [1] does the source give for `CCCCC(CCCC)OC(=O)CCCCCCCCCCOC(=O)Cc1ccc(N=c2cc3oc4cc(N(C)C)ccc4nc-3c3ccccc23)cc1` [Chromoionophroes II] here?
A: The value was “poorly soluble”.

Q: For `CCCCCCCCCCCCN(CCCCCCCCCCCC)CCCCCCCCCCCC` [tridodecylamine], which “solubility in PFPHP” value [1] is on record?
A: Its value is “poorly soluble”.

Q: With `FC(OC(F)(F)C(F)(OC(F)(F)C(F)(OC(F)(F)C(F)(OC(F)(F)C(F)(F)C(F)(F)F)C(F)(F)F)C(F)(F)F)C(F)(F)F)C(F)(F)F` (centres unmarked) [2H-perfluoro-5,8,11-trimethyl-3,6,9,12-tetraoxapentadecane] as the molecule, how does the “formal association constant with Li^+” value [3] read?
A: The value was 1.5 M⁻¹.

Q: And the “formal association constant with Na^+” value [4]?
A: The value was 2.3 M⁻¹.

Q: Which “solubility in PFPHP” value [1] does the source give for `CCCCCCCCC(CCCCCCCC)CN=c1cc2oc3cc(N(CC)CC)ccc3nc-2c2ccccc12` [Chromoionophroes III] here?
A: The value was “poorly soluble”.

Q: Which “extraction into fluorous membranes” value [5] does the source give for `C[C@H](CCC(=O)O)[C@H]1CC[C@H]2[C@@H]3[C@H](O)C[C@@H]4C[C@H](O)CC[C@]4(C)[C@H]3C[C@H](O)[C@]12C` [cholic acid] here?
A: Its value is “not extracted to any significant amount”.

Q: Which “formal pKa” value [6] does the source give for `FC(F)(F)C(F)(F)C(F)(F)C(F)(F)C(F)(F)N(C(F)(F)C(F)(F)C(F)(F)C(F)(F)C(F)(F)F)C(F)(F)C(F)(F)C(F)(F)C(F)(F)C(F)(F)F` [perfluorotripentylamine] here?
A: The value was “smaller than −0.5”.

Q: What about the “association with any ion tested” value ([6]; inorganic monocations) of the same molecule?
A: The value was “does not undergo measurable association”.

Q: For `CCCCCCCCCCCCCCCCCCOC(=O)c1ccncc1` [Hydrogen Ionophre IV], which “solubility in PFPHP” value [1] is on record?
A: Its value is “poorly soluble”.

Q: With `S=C(NCc1cccc(CNC(=S)Nc2ccccc2)c1)Nc1ccccc1` as the molecule, how does the “solubility in PFPHP” value [1] read?
A: Its value is “poorly soluble”.

Q: For `CCCCCCCCCCCC[N+](C)(CCCCCCCCCCCC)CCCCCCCCCCCC.[Cl-]` [tridodecylmethylammonium chloride], which “solubility in PFPHP” value [1] is on record?
A: Its value is “not soluble enough”.

Q: Which “log Kip” value ([7]; in cyclohexane) does the source give for “tetrakis-(decyl)ammonium tetraphenylborate” here?
A: Its value is 14.2.

Q: Which “extraction into fluorous membranes” value [5] does the source give for `CCCCCCCC(=O)O` [octanoic acid] here?
A: Its value is “not extracted to any significant amount”.

Q: With `CCCCCCCCCCCCCCCCCC(=O)N=c1cc2oc3cc(N(CC)CC)ccc3nc-2c2ccccc12` [Chromoionophroes I] as the molecule, how does the “solubility in PFPHP” value [1] read?
A: The value was “poorly soluble”.

Q: With `FC(F)(F)c1cc([B-](c2cc(C(F)(F)F)cc(C(F)(F)F)c2)(c2cc(C(F)(F)F)cc(C(F)(F)F)c2)c2cc(C(F)(F)F)cc(C(F)(F)F)c2)cc(C(F)(F)F)c1.[Na+]` as the molecule, how does the “solubility in PFPHP” value [1] read?
A: The value was “not soluble enough”.

Q: For `c1ccc(CSCc2ccccc2)cc1` [dibenzyl sulfide], which “solubility in PFPHP” value [1] is on record?
A: Its value is “poorly soluble”.

Q: For `CCCCCCCCCCCC[N+](CCCCCCCCCCCC)(CCCCCCCCCCCC)CCCCCCCCCCCC.Clc1ccc([B-](c2ccc(Cl)cc2)(c2ccc(Cl)cc2)c2ccc(Cl)cc2)cc1` [ETH 500, tetradecylammonim tetrakis[p-chlorophenyl]borate], which “solubility in PFPHP” value [1, 9] is on record?
A: The value was “not sufficiently soluble”.

Q: For `CCCCCCCC[N+](CCCCCCCC)(CCCCCCCC)CCCCCCCC.[Cl-]` [tetraoctylammonium chloride], which “log Kip” value ([7]; in 98.2 toluene-nitrobenzene) is on record?
A: Its value is 14.9.

Q: With `CC(C)[C@@H]1NC(=O)[C@H](C)OC(=O)[C@@H](C(C)C)NC(=O)[C@@H](C(C)C)OC(=O)[C@H](C(C)C)NC(=O)[C@H](C)OC(=O)[C@@H](C(C)C)NC(=O)[C@@H](C(C)C)OC(=O)[C@H](C(C)C)NC(=O)[C@H](C)OC(=O)[C@@H](C(C)C)NC(=O)[C@@H](C(C)C)OC1=O` [valinomycin] as the molecule, how does the “solubility in PFPHP” value [1, 9] read?
A: The value was “poorly soluble”.

Q: What about the “solubility in perfluoro(tributylamine)” value [2] of the same molecule?
A: The value was “poorly soluble”.

Q: And the “log K^potK,Na” value ([8]; after exposure to an extract of urine)?
A: Its value is −3.1.

Q: What about the “log K^potK,Na” value ([8]; before exposure to an extract of urine) of the same molecule?
A: The value was −3.9.

Q: With `CCCC[N+](CCCC)(CCCC)CCCC.F[B-](F)(F)F` [tetrabutyl-ammonium tetrafluoroborate] as the molecule, how does the “log Kip” value ([7]; in α,α,α-trifluorotoluene) read?
A: Its value is 5.4.
